Legend:
[1] = tested on: mice (NOD); assay: Effect on insulitis in NOD mice dosed intraperitoneally; format: in vivo; conditions: intraperitoneal, from 4 weeks of age, 3 times a week for four weeks, assessed at 14 weeks
Description: To investigate the effect of Vildagliptin or the combination “Vildagliptin+compound A” on insulitis or type I diabetes mellitus, mice (NOD) with a genetic predisposition to develop IDDM (insulin dependent diabetes mellitus) are treated with Vildagliptin or the combination “Vildagliptin+compound A”. The animals are dosed intraperitoneally from 4 weeks of age, 3 times a week for four weeks. Insulitis is assessed at 14 weeks and scored in a table. The mice are scored according to the method of Beales et al. (European Journal of Pharmacology 357 (1998) 221-225. 3 or more (DMSO and PBS) represents severe grade insulitis and 1-3 represents little infiltration (a score of 1 would represent low grade peri-insulitis).

[2] = tested on: non-obese diabetic (NOD) mice; assay: Incidence of insulitis in NOD mice, supplementation in drinking water during pregnancy and lactation; format: in vivo; conditions: maternal drinking water through pregnancy and lactation, examined at 12 weeks of age
From the text: F. Effect of Vildagliptin and the combination of “Vildagliptin+compound A” on incidence of Insulitis Diabetes-prone non-obese diabetic (NOD) mice in which females develop a 90% rate of autoimmune diabetes by the age of 25 weeks is studied in order to determine the effect of Vildagliptin and the combination of “Vildagliptin+compound A” on insulitis onset and development. Insulitis initiates at 3-5 weeks of age in NOD mice, as leukocytes begin to infiltrate around ducts and venules in both female and male mice. These infiltrates progress toward the islets, which become surrounded by concentric layers of pen-insular lymphocytes (non-destructive peri-insulitis). Destructive intra-islet insulitis then occurs, leading to extensive P cell destruction. All NOD mice display peri-insulitis, whereas intra-insulitis and overt Type 1 diabetes is restricted to about 70-80% of females and about 10-15% of males in the NOD mouse colony used in this instance. […] Mice which are examined and found to have evidence of insulitis, are then further scored as peri-islet (slight), less than 50% area of islet (medium) or more than 50% islet area (heavy), as indicative of the stage and/or severity of insulitis.

`N#C[C@@H]1CCCN1C(=O)CNC12CC3CC(CC(O)(C3)C1)C2` [vildagliptin, (S)-1-[(3-hydroxy-1-adamantyl)amino]acetyl-2-cyano-pyrrolidine] was tested, and the insulitis score [1] was “unexpected good results in reducing insulitis” and the “insulitis (histological evidence within pancreatic islets)” value [2] was “unexpected good results in reducing insulitis”.
